Measured values reported in patent publication US20120157401A1, “METHODS FOR TREATING NEUROFIBROMATOSIS” (PTC Therapeutics, Inc., priority 2009, published 2012).
pEC50: −log10 of the molar value. Like-named read-outs stand apart in the source and are kept apart here.

Tested on: hypoxia-inducible endogenous VEGF expression
Experiment: Hypoxia-inducible endogenous VEGF expression ELISA in HeLa cells, dose-response EC50 (Table 3)
Format: cell-based, human
Settings: for EC50: HeLa, read-out: ELISA EC50 μM; for pEC50: HeLa cells, hypoxic conditions (1% O2), read-out: ELISA EC50
Procedure: The ability of the Compounds to modulate hypoxia-inducible endogenous VEGF expression may be analyzed as follows. VEGF protein levels may be monitored by an ELISA assay (R&D Systems). Briefly, HeLa cells may be cultured for 24-48 hours under hypoxic conditions (1% O2, 5% CO2, balanced with nitrogen) in the presence or absence of a Compound. The conditioned media may then be assayed by ELISA, and the concentration of VEGF calculated from the standard ELISA curve of each assay.
A dose-response analysis may be performed using the ELISA assay and conditions described above. The conditions for the dose-response ELISA are analogous to those described above. A series of, e.g., seven different concentrations may be analyzed. In parallel, a dose-response cytotoxicity assay may be performed using Cell Titer Glo (Promega) under the same conditions as the ELISA to ensure that the inhibition of VEGF expression was not due to the cytotoxicity.

[1] = Homo sapiens, VEGF ELISA of conditioned media
[2] = Homo sapiens, 24-48 hours, VEGF in conditioned media
[3] = 24-48 hours, VEGF in conditioned media

For O=C(Oc1ccc(Cl)cc1)N1CCc2c([nH]c3ccc(Cl)cc23)C1c1ccc(OCCCN2CCCCC2)cc1 (stereo not shown) [Compound 433], which EC50 (Homo sapiens) is on record?
The EC50 was < 0.008 µM.

With COC(=O)NCC(O)CCOc1ccc([C@H]2c3[nH]c4ccc(Cl)cc4c3CCN2C(=O)Oc2ccc(Cl)cc2)cc1 (stereo partly shown) [Compound 1635] as the compound, how does the pEC50 [1] read?
Its pEC50 is > 8.10.

How did the pEC50 [2] turn out when O=C(Oc1ccc(Cl)cc1)N1CCc2c([nH]c3ccc(Cl)cc23)[C@@H]1c1ccc(OCCCCl)cc1 [Compound 1128] was run?
The pEC50 was > 8.10.

For COc1cc(C2c3[nH]c4ccc(Cl)cc4c3CCN2C(=O)Oc2ccc(Cl)cc2)ccc1OCCN1CCOCC1 (stereo not shown) [Compound 1092], which EC50 (Homo sapiens) is on record?
The EC50 was 0.008 to 0.04 µM.

How did the pEC50 [2] turn out when O=C(Oc1ccc(Cl)cc1)N1CCc2c([nH]c3ccc(Cl)cc23)C1c1ccc(OCCCn2cncn2)cc1 (stereo not shown) [Compound 391] was run?
The pEC50 was > 8.10.

With O=C(Oc1ccc(Cl)cc1)N1CCc2c([nH]c3ccc(Cl)cc23)C1c1ccc(OCCCN2CCC(CO)C2)cc1 (stereo not shown) [Compound 1098] as the compound, how does the EC50 (Homo sapiens) read?
The EC50 was 0.008 to 0.04 µM.

How did the pEC50 [2] turn out when O=C(Oc1ccc(Cl)cc1)N1CCc2c([nH]c3ccc(Cl)cc23)C1c1ccc(S(=O)(=O)N2CCOCC2)cc1 (stereo not shown) [Compound 346] was run?
Its pEC50 is 7.40 to 8.10.

O=C(Oc1ccc(F)cc1)N1CCc2c([nH]c3ccc(Cl)cc23)C1c1ccc(OCCCCCCN2CCOCC2)cc1 (stereo not shown) [Compound 776] was tested. Which EC50 (Homo sapiens) did it give?
Its EC50 is < 0.008 µM.

With O=C(Oc1ccccc1Cl)N1CCc2c([nH]c3ccc(Cl)cc23)C1c1ccc(C(F)(F)F)cc1 (stereo not shown) [Compound 594] as the compound, how does the pEC50 [2] read?
The pEC50 was 6.70 to 7.40.

O=C(Oc1ccc(F)cc1)Oc1ccc(C2c3[nH]c4ccc(Cl)cc4c3CCN2C(=O)Oc2ccc(F)cc2)cc1 (stereo not shown) [Compound 576] was tested. Which pEC50 [2] did it give?
Its pEC50 is 6.70 to 7.40.

How did the pEC50 [3] turn out when O=C(Oc1ccc(F)cc1)N1CCc2c([nH]c3ccc(Cl)cc23)C1c1ccc(OCCCn2ccnc2)cc1 (stereo not shown) [Compound 994] was run?
The pEC50 was > 8.10.

How did the pEC50 [2] turn out when COc1ccc(C2c3[nH]c4ccc(Cl)cc4c3CCN2C(=O)Oc2ccc(Cl)cc2)cc1OCCCn1cncn1 (stereo not shown) [Compound 1090] was run?
Its pEC50 is 6.00 to 6.70.

With N#CCOc1ccc([C@H]2c3[nH]c4ccc(Cl)cc4c3CCN2C(=O)Oc2ccc(Cl)cc2)cc1 [Compound 1669] as the compound, how does the pEC50 [1] read?
Its pEC50 is > 8.10.

COc1ccc(OC(=O)N2CCc3c([nH]c4ccc(Cl)cc34)C2c2ccc(OC)c(F)c2)cc1 (stereo not shown) [Compound 1197] was tested. Which pEC50 [2] did it give?
The pEC50 was 7.40 to 8.10.

With COCCCNCCCCOc1ccc(C2c3[nH]c4ccc(Cl)cc4c3CCN2C(=O)Oc2ccc(F)cc2)cc1 (stereo not shown) [Compound 737] as the compound, how does the EC50 (Homo sapiens) read?
Its EC50 is 0.008 to 0.04 µM.

Which EC50 (Homo sapiens) does the source give for CC(C)NCC(O)COc1ccc(C2c3[nH]c4ccc(Cl)cc4c3CCN2C(=O)Oc2ccc(Cl)cc2)cc1 (stereo not shown) [Compound 977] here?
The EC50 was 0.04 to 0.2 µM.

Cc1ccc(OC(=O)N2CCc3c([nH]c4ccc(Cl)cc34)[C@@H]2c2ccc(OCCC(O)CNC(=O)C(C)C)cc2)cc1 (stereo partly shown) [Compound 1640] was tested. Which pEC50 [1] did it give?
Its pEC50 is > 8.10.

How did the pEC50 [2] turn out when Cc1ccc(OC(=O)N2CCc3c([nH]c4ccc(Cl)cc34)C2c2ccc(OCC[C@H]3COC(C)(C)O3)cc2)cc1 (stereo partly shown) [Compound 1170] was run?
The pEC50 was > 8.10.

O=C(Oc1ccc(Cl)cc1)N1CCc2c([nH]c3ccc(Cl)cc23)[C@@H]1c1ccc(Oc2ccc3ccccc3n2)cc1 [Compound 1572] was tested. Which pEC50 [1] did it give?
Its pEC50 is > 8.10.

Cc1ccc(OC(=O)N2CCc3c([nH]c4ccc(Cl)cc34)[C@@H]2c2ccc(OCCCn3cncn3)cc2)cc1 [Compound 1182] was tested. Which pEC50 [2] did it give?
Its pEC50 is > 8.10.

With COCC(=O)NCC(O)CCOc1ccc([C@H]2c3[nH]c4ccc(Cl)cc4c3CCN2C(=O)Oc2ccc(Cl)cc2)cc1 (stereo partly shown) [Compound 1278] as the compound, how does the pEC50 [2] read?
The pEC50 was > 8.10.

How did the pEC50 [2] turn out when Cc1ccc(OC(=O)N2CCc3c([nH]c4ccc(Cl)cc34)C2c2ccc(OCCCn3cncn3)cc2)cc1 (stereo not shown) [Compound 882] was run?
Its pEC50 is > 8.10.

How did the pEC50 [2] turn out when COC(=O)c1ccc(C2c3[nH]c4ccc(Br)cc4c3CCN2C(=O)Oc2ccc(Cl)cc2)cc1 (stereo not shown) [Compound 591] was run?
Its pEC50 is > 8.10.

Which EC50 (Homo sapiens) does the source give for O=C(Oc1ccc(F)cc1)N1CCc2c([nH]c3ccc(Cl)cc23)C1c1ccc(OCCCCCCNCCO)cc1 (stereo not shown) [Compound 772] here?
Its EC50 is < 0.008 µM.

O=C(Oc1ccc(F)cc1)N1CCc2c([nH]c3ccc(Cl)cc23)C1c1ccc(OCCCn2nccn2)cc1 (stereo not shown) [Compound 1017] was tested. Which pEC50 [2] did it give?
The pEC50 was > 8.10.

O=C(Oc1ccc(Cl)cc1)N1CCc2c([nH]c3ccc(Cl)cc23)C1c1ccc(OCCCCl)cc1 (stereo not shown) [Compound 921] was tested. Which pEC50 [2] did it give?
The pEC50 was > 8.10.

How did the pEC50 [2] turn out when O=C(Oc1ccc(Cl)cc1)N1CCc2c([nH]c3ccc(Cl)cc23)[C@H]1c1ccc(OCCCn2ccnn2)cc1 [Compound 1069] was run?
The pEC50 was > 8.10.

How did the pEC50 [1] turn out when COCCOC(=O)NCC(O)COc1ccc(C2c3[nH]c4ccc(Cl)cc4c3CCN2C(=O)Oc2ccc(Cl)cc2)cc1 (stereo not shown) [Compound 1564] was run?
Its pEC50 is > 8.10.

For CN1CCN(CCCCCCOc2ccc(C3c4[nH]c5ccc(Cl)cc5c4CCN3C(=O)Oc3ccc(F)cc3)cc2)CC1 (stereo not shown) [Compound 778], which EC50 (Homo sapiens) is on record?
Its EC50 is < 0.008 µM.

O=C(Oc1ccc(Cl)cc1)N1CCc2c([nH]c3ccc(Cl)cc23)C1c1ccc(OCCCCCCn2cncn2)cc1 (stereo not shown) [Compound 791] was tested. Which pEC50 [2] did it give?
The pEC50 was > 8.10.

How did the pEC50 [3] turn out when O=C(Oc1ccc(Cl)cc1)N1CCc2c([nH]c3ccc(Br)cc23)C1c1ccc(C(F)(F)F)cc1 (stereo not shown) [Compound 570] was run?
Its pEC50 is > 8.10.

O=C(Oc1ccc(Cl)cc1)N1CCc2c([nH]c3ccc(Cl)cc23)[C@@H]1c1ccc(OCc2cn(C3OC(CO)C(O)C(O)C3O)nn2)cc1 (stereo partly shown) [Compound 1674] was tested. Which pEC50 [1] did it give?
The pEC50 was 6.00 to 6.70.

O=C(Oc1ccc(F)cc1)N1CCc2c([nH]c3ccc(Cl)cc23)C1c1ccc(F)cc1 (stereo not shown) [Compound 452] was tested. Which pEC50 [2] did it give?
The pEC50 was 7.40 to 8.10.

With CCC(CO)(CO)COc1ccc(C2c3[nH]c4ccc(Br)cc4c3CCN2C(=O)Oc2ccc(F)cc2)cc1 (stereo not shown) [Compound 1357] as the compound, how does the pEC50 [1] read?
The pEC50 was > 8.10.

How did the pEC50 [2] turn out when O=C(Oc1ccc(Br)cc1)N1CCc2c([nH]c3ccc(Cl)cc23)C1c1ccc(OCC(O)CO)cc1 (stereo not shown) [Compound 630] was run?
The pEC50 was > 8.10.

With CC(=O)Oc1ccc([C@H]2c3[nH]c4ccc(Cl)cc4c3CCN2C(=O)Oc2ccc(Cl)cc2)cc1 [Compound 1538] as the compound, how does the pEC50 [1] read?
Its pEC50 is > 8.10.

O=C(Oc1ccc(Cl)cc1)N1CCc2c([nH]c3ccc(Cl)cc23)C1c1ccc(OCCNc2ncncn2)cc1 (stereo not shown) [Compound 1442] was tested. Which pEC50 [1] did it give?
Its pEC50 is > 8.10.

How did the pEC50 [1] turn out when Nc1ccn(CCOc2ccc(C3c4[nH]c5ccc(Cl)cc5c4CCN3C(=O)Oc3ccc(Cl)cc3)cc2)n1 (stereo not shown) [Compound 1417] was run?
Its pEC50 is > 8.10.

Which EC50 (Homo sapiens) does the source give for O=C1CN(CCCOc2ccc(C3c4[nH]c5ccc(Cl)cc5c4CCN3C(=O)Oc3ccc(Cl)cc3)cc2)C(=O)N1 (stereo not shown) [Compound 1672] here?
The EC50 was < 0.008 µM.

O=C(Oc1ccc(Cl)cc1)N1CCc2c([nH]c3ccc(Cl)cc23)C1c1ccc(OCCCN2CC[C@@H](O)C2)cc1 (stereo partly shown) [Compound 1476] was tested. Which EC50 (Homo sapiens) did it give?
The EC50 was 0.04 to 0.2 µM.

CCS(=O)(=O)NCC(O)CCOc1ccc([C@H]2c3[nH]c4ccc(Cl)cc4c3CCN2C(=O)Oc2ccc(Cl)cc2)cc1 (stereo partly shown) [Compound 1638] was tested. Which pEC50 [1] did it give?
The pEC50 was > 8.10.

COc1cc(C2c3[nH]c4ccc(Cl)cc4c3CCN2C(=O)Oc2ccc(Cl)cc2)ccc1OCCCn1cncn1 (stereo not shown) [Compound 1087] was tested. Which pEC50 [2] did it give?
The pEC50 was 7.40 to 8.10.

With O=C(Oc1ccc(F)cc1)N1CCc2c([nH]c3ccc(Cl)cc23)C1c1ccc(OCCNc2ncncn2)cc1 (stereo not shown) [Compound 1440] as the compound, how does the pEC50 [1] read?
Its pEC50 is > 8.10.

COc1ccc(C2c3[nH]c4ccc(Cl)cc4c3CCN2C(=O)Oc2ccccc2Cl)cc1 (stereo not shown) [Compound 587] was tested. Which pEC50 [2] did it give?
The pEC50 was 6.70 to 7.40.

With CC(C)C(=O)NCC(O)COc1ccc(C2c3[nH]c4ccc(Cl)cc4c3CCN2C(=O)Oc2ccc(Cl)cc2)cc1 (stereo not shown) [Compound 1559] as the compound, how does the pEC50 [1] read?
Its pEC50 is 7.40 to 8.10.

CC(C)C(=O)Nc1ccc(C2c3[nH]c4ccc(Cl)cc4c3CCN2C(=O)Oc2ccc(Cl)cc2)cc1 (stereo not shown) [Compound 482] was tested. Which pEC50 [2] did it give?
The pEC50 was 6.70 to 7.40.

How did the pEC50 [1] turn out when CC(CO)(CO)COc1ccc(C2c3[nH]c4ccc(Br)cc4c3CCN2C(=O)Oc2ccc(F)cc2)cc1 (stereo not shown) [Compound 1352] was run?
Its pEC50 is > 8.10.

With O=C(Oc1ccc(Cl)cc1)N1CCc2c([nH]c3ccc(Cl)cc23)C1c1ccc(OCC(O)Cn2cncn2)cc1 (stereo not shown) [Compound 996] as the compound, how does the pEC50 [2] read?
The pEC50 was > 8.10.

O=C(Oc1ccc(F)cc1)N1CCc2c([nH]c3ccc(Cl)cc23)C1c1ccc(OCCn2ccnn2)cc1 (stereo not shown) [Compound 833] was tested. Which pEC50 [2] did it give?
Its pEC50 is 6.70 to 7.40.
